Patent US20150079673A1, “HEPATOCYTES IN CO-CULTURE AND USES THEREOF” (Colorado State University Research Foundation, priority 2013, published 2015)

Key:
Assay type in all cases: cell-based
[1] = tested on: human hepatocytes maintained in micropatterned co-culture with 3T3-J2 murine embryonic fibroblasts; assay: Glycogen synthesis in MPCC, PAS stain of intracellular glycogen; settings: glycogen-depleted, 5 mM glucose + 100 nm hormone, 24 hours after treatment; FIG. 11B
Experimental: (§1) Glycogen lysis and glycogen synthesis in MPCC hepatocytes was also studied. The rate of glycogen lysis in MPCCs was measured by incubating cultures with glucose-free/hormone-free medium for 48 hours (fasting), followed by fixation of cultures using 4% paraformaldehyde and staining of intracellular glycogen (periodic acid Schiff stain (“PAS stain”)). The rate of glycogen synthesis was measured by first depleting glycogen stores as described above, followed by addition of glucose to medium (feeding) and staining of glycogen at specific time-points. Results at 24 hours are shown in FIGS. 11A-B. FIG. 11A is a panel of four photomicrographs of human hepatocytes maintained in micropatterned co-culture with 3T3-J2 murine embryonic fibroblasts, indicating glycogenolysis in the cells under four conditions: 25 mM glucose, glucose free, glucose free+100 nm glucagon, and glucose free+100 nm insulin, 24 hrs after treatment. […] MPCCs were cultured in glucose free media for 2 days and depleted of all glycogen prior to the addition of 5 mM glucose. […]

[2] = tested on: human hepatocytes maintained in micropatterned co-culture with 3T3-J2 murine embryonic fibroblasts; assay: Glycogen lysis in MPCC, PAS stain of intracellular glycogen; settings: glucose free medium + 100 nm hormone, 24 hrs after treatment; FIG. 11A
Experimental: as §1

[3] = tested on: human hepatocytes maintained in micropatterned co-culture with 3T3-J2 murine embryonic fibroblasts; assay: Gluconeogenesis (glucose production) in glycogen-depleted MPCC; settings: at 24 hours, following a varying dose of metformin; FIG. 9B
Experimental: To test for gluconeogenesis in diabetic hepatocytes in co-culture, the MPCC hepatocyte cultures comprising diabetic versus non-diabetic cells were subjected to glucose-free medium for 24-48 hours, thereby depleting the resident glycogen stores so that cells were only able to perform gluconeogenesis in the presence of the glucose precursors lactate and pyruvate. Gluconeogenesis rate was measured by incubating glycogen-depleted cultures with the substrates pyruvate and lactate, in glucose-free medium and glucose measurement in medium (Amplex Red) at 24 hours, thereby isolating the contribution of gluconeogenesis to glucose production, from potential residual glucose output due to glycogen depletion.
Cells were also tested under the glycogen depletion conditions as described above, for the effect of hormones on glucose production. The MPCCs were subjected to glycogen depletion for 12 hours, followed by stimulation of gluconeogenesis using lactate or pyruvate, in the presence or absence of insulin, glucagon or dexamethasone. Released glucose was measured 24 hours later.

Q: What does the source list for glucagon?
A: glycogen synthesis (intracellular glycogen, PAS stain) [1]: did not synthesize glycogen; glycogenolysis (intracellular glycogen, PAS stain) [2]: at a higher rate when stimulated by glucagon

Q: insulin was tested. Which “glycogen synthesis (intracellular glycogen, PAS stain)” value [1] did it give?
A: at a higher rate when stimulated by insulin

Q: What about the “glycogenolysis (intracellular glycogen, PAS stain)” value [2] of the same compound?
A: continued storing glycogen

Q: For `CN(C)C(=N)N=C(N)N` [metformin], which “glucose production (gluconeogenesis)” value [3] is on record?
A: dose-dependent blockage
